Data set [1] deals with platelet aggregation. Nature of the data set: Antiplatelet aggregation test in rabbit platelet-rich plasma, synthetic C16:0 PAF-induced (method of Born et al.). It is filed as cell-based. The note with it: platelet count 6×10^5 /μl, C16:0 PAF final 1×10^-8 -3×10^-8 M; for IC50: Oryctolagus cuniculus, read-out: IC50 (concentration necessary to inhibit aggregation by 50%). Here is the method:
The following antiplatelet aggregation test was performed, using the phomactin A thus obtained.
Blood was drawn from a rabbit heart and immediately mixed with nine times its volume of a 3.8% w/v aqueous solution of sodium citrate. A platelet-rich plasma (PRP) was then obtained as a supernatant by centrifugation of the blood mixture at 150×g for 15 minutes at room temperature. The precipitated fraction remaining from the blood mixture was then centrifuged for a further 15 minutes at 10,000×g to obtain a platelet-poor plasma (PPP) as a supernatant. Appropriate proportions of the PRP and the PPP were mixed to obtain a plasma having a platelet count of 6×10^5 /μl.
Platelet aggregation was determined by the method of Born et al. [Nature, 194, 927-929 (1962)] where an increase in light transmission through the test sample is measured by means of an aggregometer.
The aggregation resulting from the addition of the PAF alone, without the prior addition of the test compound, was taken as 100%.
Instead of the test solution, physiological saline was added and the aggregation at one minutes after the addition of C16 -PAF was used as the control.

The nature of data set [2]: Solubility. It is filed as physicochemical. To be noted: for Solubility in organic solvents: methanol, ethanol, acetone, ethyl acetate, chloroform, dimethyl sulfoxide, benzene and diethyl ether.
The subject of data set [3] is infarct size after coronary artery ligation. The note with it: 5 mg kg^-1 i.v. immediately before occlusion, after 24 h of occlusion, rats, cited from earlier work.
Data set [4] has as its system arrhythmias evoked by ligation of left anterior descending coronary artery. To be noted: cited from earlier work.

As to `CC1=CCCC2(C)OC2C(=O)C2=CC(O)C(C)C(C)(CC1)C2(C)O` (stereo not drawn) [Phomactin B, 13,15-dihydroxy-3,4-epoxy-2-oxo-4,8,11,12,15-pentamethylbicycl[9.3.1]pentadeca-7,14-diene], the IC50 in data set [1] is 17 µM. Further, in data set [2], the “Solubility in organic solvents” value was “Soluble in methanol, ethanol, acetone, ethyl acetate, chloroform, dimethyl sulfoxide, benzene and diethyl ether”; the Solubility in water result is “insoluble in water”.

`CC1C(=O)OC2C(O)C34C5CC(C(C)(C)C)C36C(OC(=O)C6O)OC4(C(=O)O5)C12O` (stereo not drawn) [BN-52021]: the infarct size in data set [3] (control 26±2.2%, p<0.05) is recorded as 17±1.8 % of heart tissue. Also, the “infarct size (in words)” value in data set [3] (preliminary studies) was “significantly reduced the infarct size”. In addition, the “number of ectopic beats during the 30 min ischemic period (in words)” value in data set [4] (5 mg kg^-1, 15 min before coronary artery occlusion, mongrel dogs) is listed as “significantly reduced the number of ectopic beats”. Besides, the “Number of ectopic beats, 5-10 min of ischemia, mean ± SEM” value in data set [4] (5 mg kg^-1 i.v. bolus 15 min before ligation, 5-10 min, dogs, p < 0.05 (Wilcoxon)) is reported as 10 ± 5.4. The “Number of ectopic beats, 10-15 min of ischemia, mean ± SEM” value in data set [4] (5 mg kg^-1 i.v. bolus 15 min before ligation, 10-15 min, dogs, p < 0.05 (Wilcoxon)) was 10 ± 5.3. For the same molecule, in data set [4] (5 mg kg^-1 i.v. bolus 15 min before ligation, 15-20 min, dogs, p < 0.05 (Wilcoxon)), the “Number of ectopic beats, 15-20 min of ischemia, mean ± SEM” value is given as 15 ± 6.3. Besides, the “Number of ectopic beats, 20-25 min of ischemia, mean ± SEM” value in data set [4] (5 mg kg^-1 i.v. bolus 15 min before ligation, 20-25 min, dogs, p < 0.05 (Wilcoxon)) is on record as 55 ± 28.6. Also, in data set [4] (5 mg kg^-1 i.v. bolus 15 min before ligation, 25-30 min, dogs, p < 0.05 (Wilcoxon)), the “Number of ectopic beats, 25-30 min of ischemia, mean ± SEM” value is listed as 98 ± 39.0.

Regarding `CC1=CCCC2(C)OC3CC(C)C(C)(CC1)C1=C3C(O)(OC1)C2O` (stereo not drawn) [Phomactin A, 3,3a-dihydroxy-2,6-(3'-methyl-3'-hexeno)-2,6,7-trimethyl-3a,5,6,7,8,8a-hexanhydrofuro[2,3,4-de]chroman], the IC50 in data set [1] came out at 17 µM. Moreover, the “inhibition of platelet aggregation” value in data set [1] (at a concentration of 10 g/ml (so in the source)) is on record as “about 91.7%”. Also, in data set [2], the “Solubility in organic solvents” value is “Soluble in methanol, ethanol, acetone, ethyl acetate, chloroform, dimethyl sulfoxide, benzene and diethyl ether”; the Solubility in water result is “insoluble in water”.

Values taken from patent US5308867A, “Platelet activating factor antagonists, named "the phomactins", their preparation and use” (Sankyo Company, Limited, priority 1988, dated 1994).
